# Reference: patent US10294207B2, “Pyrazole derivatives as TNIK, IKKϵ and TBK1 inhibitor and pharmaceutical composition comprising same” (GREEN CROSS CORPORATION, priority 2015, dated 2019)
# What was measured:
# Assay type in all cases: biochemical
# Details in all cases: luminometer
# [1] = molecular target: T1, TNIK (Homo sapiens, UniProt Q9UKE5); assay: TNIK inhibition, ADP-Glo Kinase Assay
# T1 construct: purchased Promega V4158
# Protocol: Inhibition activities on TNIK, IKKε and TBK1 were evaluated using the compounds of Examples 1 to 254.
# The inhibition activities on TNIK, IKKε and TBK1 were measured by a luminometer, TNIK/IKKε/TBK1 Kinase Enzyme System (Promega, Ca# V4158; Invitrogen, PR8031B, Promega, Ca# V3991) and ADP-Glo Kinase Assay using ADP-Glo™ Kinase Analysis Kit (Promega, Ca# V9101) and a kinase reaction buffer [40 mM Tris(pH 7.5), 20 mM MgCl2, 0.1 mg/mL BSA] in accordance with the manufacturer's protocol.
# [2] = molecular target: T2, TBK1 (Homo sapiens, UniProt Q9UHD2); assay: TBK1 inhibition, ADP-Glo Kinase Assay
# T2 construct: purchased Promega V3991
# T2 sequence (Q9UHD2 1-729): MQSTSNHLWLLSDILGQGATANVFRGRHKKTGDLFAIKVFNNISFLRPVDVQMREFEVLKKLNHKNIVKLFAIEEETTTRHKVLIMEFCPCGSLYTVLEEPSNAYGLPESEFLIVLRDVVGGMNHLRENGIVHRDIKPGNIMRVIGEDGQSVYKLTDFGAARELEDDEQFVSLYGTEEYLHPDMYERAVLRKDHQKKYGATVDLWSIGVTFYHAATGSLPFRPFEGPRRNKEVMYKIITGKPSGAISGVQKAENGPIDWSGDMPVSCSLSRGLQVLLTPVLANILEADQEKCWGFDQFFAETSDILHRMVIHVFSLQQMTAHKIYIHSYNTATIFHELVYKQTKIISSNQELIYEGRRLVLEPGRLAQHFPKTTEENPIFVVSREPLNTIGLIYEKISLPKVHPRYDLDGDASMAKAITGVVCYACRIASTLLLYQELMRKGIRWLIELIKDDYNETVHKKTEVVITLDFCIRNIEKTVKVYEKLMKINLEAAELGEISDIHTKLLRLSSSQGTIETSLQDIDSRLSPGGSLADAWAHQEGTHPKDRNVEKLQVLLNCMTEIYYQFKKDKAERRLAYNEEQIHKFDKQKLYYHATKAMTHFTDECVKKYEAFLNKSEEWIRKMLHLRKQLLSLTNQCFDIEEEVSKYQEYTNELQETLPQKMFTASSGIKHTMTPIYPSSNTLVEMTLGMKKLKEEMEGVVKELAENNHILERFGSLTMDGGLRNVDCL
# Summary of the method: (§1)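 ADP-Glo luminescence reported ADP produced by each kinase, following the kit protocol. Reactions used commercial kinase enzyme systems in buffer of 40 mM Tris (pH 7.5), 20 mM MgCl2 and 0.1 mg/mL BSA.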
# [3] = molecular target: T3, IKKε (Homo sapiens, UniProt Q14164); assay: IKKε inhibition, ADP-Glo Kinase Assay
# T3 construct: purchased Invitrogen PR8031B
# T3 sequence (Q14164 1-716): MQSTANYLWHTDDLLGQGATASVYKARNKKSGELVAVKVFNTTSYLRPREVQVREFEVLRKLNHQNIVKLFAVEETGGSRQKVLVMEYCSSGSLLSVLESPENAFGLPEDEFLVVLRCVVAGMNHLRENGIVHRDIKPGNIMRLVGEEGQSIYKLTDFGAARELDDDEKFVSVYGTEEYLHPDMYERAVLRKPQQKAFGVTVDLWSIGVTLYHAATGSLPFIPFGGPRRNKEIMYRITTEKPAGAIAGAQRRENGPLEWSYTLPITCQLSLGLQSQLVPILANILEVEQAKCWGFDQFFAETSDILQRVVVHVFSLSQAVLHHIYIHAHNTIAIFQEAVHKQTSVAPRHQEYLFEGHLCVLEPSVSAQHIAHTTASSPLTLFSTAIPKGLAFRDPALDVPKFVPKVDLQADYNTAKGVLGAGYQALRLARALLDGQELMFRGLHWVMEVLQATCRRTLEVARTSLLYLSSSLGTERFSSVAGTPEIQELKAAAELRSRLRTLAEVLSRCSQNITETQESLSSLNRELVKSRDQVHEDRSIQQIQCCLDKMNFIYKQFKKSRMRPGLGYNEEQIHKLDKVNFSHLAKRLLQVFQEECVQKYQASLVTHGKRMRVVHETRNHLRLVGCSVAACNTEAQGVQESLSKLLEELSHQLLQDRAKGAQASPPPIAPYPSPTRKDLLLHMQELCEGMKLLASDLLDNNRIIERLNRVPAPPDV
# Summary of the method: as §1
# T1 sequence (Q9UKE5 1-367 limits assumed): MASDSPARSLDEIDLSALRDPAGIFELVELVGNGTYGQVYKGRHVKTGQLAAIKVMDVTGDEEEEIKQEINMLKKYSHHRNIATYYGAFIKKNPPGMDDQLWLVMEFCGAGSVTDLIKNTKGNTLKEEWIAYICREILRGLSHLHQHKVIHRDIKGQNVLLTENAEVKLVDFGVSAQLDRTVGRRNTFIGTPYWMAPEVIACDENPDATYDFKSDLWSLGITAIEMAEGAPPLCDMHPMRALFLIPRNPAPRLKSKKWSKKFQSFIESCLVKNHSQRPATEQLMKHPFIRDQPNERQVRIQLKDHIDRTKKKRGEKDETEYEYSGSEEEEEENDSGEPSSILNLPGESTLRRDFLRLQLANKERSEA
SMILES,IC50 [1] [µM],IC50 [2] [µM],IC50 [3] [µM]
"Cc1cnc(-c2cc3[nH]nc(NC(=O)c4ccc(NCCN5CCCCC5)cc4)c3s2)o1 [Example 224, N-(5-(5-methyloxazol-2-yl)-1H-thieno[3,2-c]pyrazol-3-yl)-4-((2-(piperidin-1-yl)ethyl)amino)benzamide]",0.085,0.12,0.32
"Cc1cnc(-c2cc3[nH]nc(NC(=O)c4ccc(N5CCN(C)CC5)cc4)c3s2)o1 [Example 225, N-(5-(5-methyloxazol-2-yl)-1H-thieno[3,2-c]pyrazol-3-yl)-4-(4-methylpiperazin-1-yl)benzamide]",0.049,0.13,0.35
"Cc1cnc(-c2cc3[nH]nc(-c4ccc(N5CCOCC5)cc4)c3s2)o1 [Example 243, 4-(4-(5-(5-methyloxazol-2-yl)-1H-thieno[3,2-c]pyrazol-3-yl)phenyl)morpholine]",0.15,> 10,
"COC(=O)c1cc2[nH]nc(-c3ccc(F)cc3)c2s1 [Example 239, methyl 3-(4-fluorophenyl)-1H-thieno[3,2-c]pyrazole-5-carboxylate]",0.86,> 10,
